From US20230293614A1, “COMPOSITIONS AND METHODS OF TREATING UPS-ASSOCIATED DISEASES” (Board of Supervisors of Louisiana State University and …, priority 2020, published 2023)

Tests used:
Type in all cases: cell-based
[1] = MTT cellular viability assay, MM.1S; conditions: human, MM.1S cells, read-out: percentage of viable cells
Procedure: (§1) The effect of PMI-5011 and bioactive compounds on the viability of cells was tested using a standard colorimetric MTT assay. The MTT Cell Proliferation Assay Kit was purchased from VWR, Radnor, Pa. MM.1S and OPM2 cells were treated with 10 μg/mL of PMI-5011 and 1, 10, and 30 μg/mL of DMC-1, DMC-2, KOE and davidigenin and plated at a density of 10^6 cells/mL in a 96-well plate with each well containing 250 μL of the sample. The plated cells were then incubated at 37° C. for 16 h. 10 μg/mL for PMI-5011 and a 16-h treatment period was used in this study based on previous findings by Yu et al.^24 Parallel plates were prepared for positive and negative solvent vehicle control with the same volume of DMSO and ethanol as for the treated cells. On the day of the experiment, the 96-well plates were centrifuged at 1000×g at 4° C. for 5 min in a microplate compatible centrifuge. The media was discarded and 50 μL of serum-free media and 50 μL of the MTT reagent were added into each well. For a background control, 50 μL of the MTT reagent was added into a well containing media only (no cells). The plate was incubated at 37° C. for 3 h in the dark. After incubation, 150 μL of the MTT solvent was added into each well. The plate was wrapped in a foil and placed on an orbital shaker for 15 min. Finally, the absorbance was measured at λex=544 nm and λem=590 nm using a Wallac 1420 VICTOR2 multilabel HTS counter fluorometry (Perkin Elmer (Waltham, Mass.). The percentage viable cells was obtained by Eq. 1.
(§2) % Viable Cells=S-N/C-N×100 (Eq. 1)
(§3) Where, S denotes raw absorbance values from samples, N denotes average absorbance value of the background control and C denotes the highest average absorbance value of positive vehicle control. The obtained percentage cytotoxicity values were then statistically analyzed for their significance. Each data point represents triplicate data points from duplicate experiments. The effect of PMI-5011 and the selected bioactive compounds on C2C12 cell viability has previously been reported.^24

[2] = MTT cellular viability assay, OPM2; conditions: human, OPM2 cells, read-out: percentage of viable cells
Procedure: as §1, §2, §3

[3] = test system: deubiquitinating enzymes (DUBs); test: DUB activity (Z-LRGG-AMC cleavage) in lysates of treated MM.1S cells; conditions: for Vmax / effect on DUB activity vs DMSO control / Km / n (Hill coefficient): 16 h
Procedure: OPM2 cells were maintained in RPMI 1640 media supplemented with 12% FBS, 21.8 mM glucose, 8.6 mM HEPES (pH 7.4) and 1.0 mM sodium pyruvate. MM.1S cell line were maintained in RPMI 1640 media supplemented with 10% FBS. The cells were all cultured in T175 flasks (VWR, Radnor, Pa.). All media components were from Corning, Atlanta, Ga. unless otherwise noted. To test the effect of the ethanolic extract and bioactive compounds on DUB activity, cells were exposed to a 16-h pretreatment with 10 μg/mL of PMI-5011 and 1, 10, 30 μg/mL concentrations of DMC-1, DMC-2, KOE, and davidigenin before lysing the cells for experimentation. All compounds were reconstituted in DMSO to obtain stock concentrations, which was further diluted in culture media to obtain the desired experimental concentrations. For vehicle control, a subpopulation of cells was treated with pure DMSO diluted in a similar manner for the same duration. Upon treatment, cell lysates (both OPM2 and MM.1S) were generated by harvesting 1×10^6 cells/mL, followed by washing 2× and pelleting in phosphate buffered saline (PBS; 137 mM NaCl, 10 mM Na2HPO4, […], and 1.75 mM KH2PO4 at pH 7.4). The cell pellet was re-suspended in an approximately equivalent volume of M-PER to the volume of the cell pellet (1000-2000 μL) then vortexed for 10 min at room temperature. Following this, the mixture was centrifuged at 14,000×g for 15 min at 4° C. and the supernatant transferred to a centrifuge tube and stored on ice until use. Total protein concentration was determined using a NanoDrop 2000c (Thermo Scientific, Madison, Wis.).
The commercial DUB reporter, Z-LRGG-AMC (substrate) (SEQ ID NO: 1) was reconstituted in DMSO to obtain a final stock concentration of 1.44 mM. This stock reporter was diluted as needed in assay buffer (50 mM HEPES, pH 7.4, 150 mM NaCl, 2 mM DTT, and 0.02% Tween-20) supplemented with 4 mg/mL cell lysates (source of DUBs) to reach the desired reporter concentration with a final volume of 100 μL in a 96-well plate. OPM2 and MM.1S cell lysates from different treatments (10 μg/mL of PMI-5011; 1, 10, and 30 μg/mL of DMC-1, DMC-2, KOE, davidigenin and control vehicle DMSO) and C2C12 cell lysates were used to interrogate the effect of the ethanolic extract and selected bioactive compounds on DUB activity. Reporter only and lysates only (noise/background) samples were included in the 96-well plate to confirm that the rates observed were due to DUB-mediated hydrolysis initiated by the cell lysates. The 96-well plate was maintained at a temperature of 30° C. in the dark for the duration of the experiment. The fluorescence signals emitted as a result of DUB-mediated cleavage of AMC (λex=355 nm and λem=460 nm) were quantified using a Wallac 1420 VICTOR2 multilabel HTS counter fluorometry (Perkin Elmer (Waltham, Mass.). Readings were collected every 30 min for 6 h. The normalized signals were obtained by comparing the treatment with noise and background fluorescence values which were then statistically analyzed for their significance. Each data point represents triplicate data points from duplicate experiments. A calibration curve was generated for known concentrations of AMC to correlate the fluorescence signal (AU) to concentration (μM). The approximate concentration of free fluorophore was used to calculate reaction rates (μM/min) for each substrate concentration using linear regression analysis.
All data visualization, interpretation and curve-fittings were performed using Origin Pro (OriginLab, Northampton, MA) while statistical analyses of experimental data were carried out using SAS 9.4 (SAS Solutions). The analyses of enzyme-substrate reactions in all cell lysates started with scatter plotting the fluorometry signals (p,M) measured for each substrate concentration against time (min). Fluorescence signals measured for each substrate concentration remained stable during the first 30 min, indicating there was a 30-minute lag period before reaction initiation. […]

COc1ccc(CCC(=O)c2ccc(O)cc2O)cc1 [DMC-2, 1-(2,4-dihydroxyphenyl)-3-(4-methoxyphenyl)propan-1-one]
viability at 16 h, 1 μg/mL ([1]; 1 μg/mL): ~100%
viability at 16 h, 30 μg/mL ([1]; 30 μg/mL): ~65%
viability at 16 h, 1 μg/mL ([2]; 1 μg/mL): ~85%
viability at 16 h, 30 μg/mL ([2]; 30 μg/mL): ~70%
Vmax ([3]; 1 μg/mL): 22.70 ± 1.71 µM/min
effect on DUB activity vs DMSO control ([3]; 1 μg/mL): significantly enhanced
Vmax ([3]; 10 μg/mL): 18.13 ± 0.14 µM/min
effect on DUB activity vs DMSO control ([3]; 10 μg/mL): significantly enhanced
Vmax ([3]; 30 μg/mL): 18.12 ± 7.21 µM/min
effect on DUB activity vs DMSO control ([3]; 30 μg/mL): significantly enhanced
effect of increasing concentration on DUB activity (normalized Vmax) ([3]; 1, 10, 30 μg/mL, regression fit): negative linear effect
Km ([3]; Table 2, 1 μg/mL): 44.8 µM
Vmax ([3]; Table 2, 1 μg/mL): 0.0227 µM/min
n (Hill coefficient) ([3]; Table 2, 1 μg/mL): ~1.00
Km ([3]; Table 2, 10 μg/mL): 39.4 µM
Vmax ([3]; Table 2, 10 μg/mL): 0.0181 µM/min
n (Hill coefficient) ([3]; Table 2, 10 μg/mL): 1.68
Km ([3]; Table 2, 30 μg/mL): 42.2 µM
Vmax ([3]; Table 2, 30 μg/mL): 0.0181 µM/min
n (Hill coefficient) ([3]; Table 2, 30 μg/mL): 1.06
